Laboratory results from patent US9346815B2, “5-chloro-2-difluoromethoxyphenyl pyrazolopyrimidine compounds, compositions and methods of use thereof” (Genentech, Inc., priority 2014, dated 2016).
Where two headings read alike, the source gives them in different places.

Experiments:
[1] = molecular target: isolated recombinant JAK1 kinase domain (Homo sapiens (Human), UniProt P23458); experiment: JAK1 enzyme assay (Caliper LabChip, peptide phosphorylation); type: biochemical; conditions: isolated recombinant JAK1 kinase domain, 25 μM ATP
[2] = molecular target: isolated recombinant JAK2 kinase domain (Homo sapiens (Human), UniProt O60674); experiment: JAK2 enzyme assay (Caliper LabChip, peptide phosphorylation); type: biochemical; conditions: 25 μM ATP
[3] = system: JAK1-dependent STAT6 phosphorylation downstream of IL-13 stimulation in TF-1 human erythroleukemia cells; experiment: JAK1 pathway assay in TF-1 cells (IL-13-pSTAT6, MSD); type: cell-based; conditions: read-out: IL13-pSTAT6 EC50_TF-1
How it was run: (§1)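 Cells were preincubated with compounds (0.2% DMSO) for 30 min (TF-1, GM-CSF-starved overnight, serum-free OptiMEM, 300,000 cells/well) or 1 h (BEAS-2B, complete medium, 100,000 cells/well) at 37 °C.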

[4] = system: JAK1-dependent STAT6 phosphorylation downstream of IL-13 stimulation in BEAS-2B human bronchial epithelial cells; experiment: JAK1 pathway assay in BEAS-2B cells (IL-13-pSTAT6, MSD); type: cell-based; conditions: read-out: IL13-pSTAT6 EC50 (uM)_BEAS-2B
How it was run: as §1

isolated recombinant JAK2 kinase domain, sequence (O60674 849-1124): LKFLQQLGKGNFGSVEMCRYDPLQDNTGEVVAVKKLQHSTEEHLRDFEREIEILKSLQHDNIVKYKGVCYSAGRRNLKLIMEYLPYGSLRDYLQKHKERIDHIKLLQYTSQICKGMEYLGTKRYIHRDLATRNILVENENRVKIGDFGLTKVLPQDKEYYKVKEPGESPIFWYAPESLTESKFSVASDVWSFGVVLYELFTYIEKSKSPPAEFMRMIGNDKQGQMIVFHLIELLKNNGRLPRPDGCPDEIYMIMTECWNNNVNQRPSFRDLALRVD
isolated recombinant JAK1 kinase domain, sequence (P23458 875-1153): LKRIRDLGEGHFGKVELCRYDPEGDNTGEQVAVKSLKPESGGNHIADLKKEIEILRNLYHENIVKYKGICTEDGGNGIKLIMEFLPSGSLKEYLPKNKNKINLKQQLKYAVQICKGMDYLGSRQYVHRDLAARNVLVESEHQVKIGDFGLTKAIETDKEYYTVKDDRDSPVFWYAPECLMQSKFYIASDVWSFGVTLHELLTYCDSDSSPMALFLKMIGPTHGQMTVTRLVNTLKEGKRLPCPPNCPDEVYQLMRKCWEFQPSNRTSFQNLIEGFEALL

Row | SMILES | Ki [1] [nM] | Ki [2] [nM] | EC50 ([3]; Homo sapiens, TF-1, TF-1 cells) [nM] | EC50 ([3]; TF-1 cells) [nM] | EC50 [4] [µM]
1 | N#CCCNC1CCN(C(=O)Cn2cc(NC(=O)c3cnn4cccnc34)c(-c3cc(Cl)ccc3OC(F)F)n2)CC1 [Example 87, N-[3-[5-chloro-2-(difluoromethoxy)phenyl]-1-[2-[4-(2-cyanoethylamino)-1-piperidyl]-2-oxo-ethyl]pyrazol-4-yl]pyrazolo[1,5-a]pyrimidine-3-carboxamide] | 0.4 | 0.73 | 15.4 |  | 0.014
2 | CN1CC2CN(C(=O)Cn3cc(NC(=O)c4c(N)nn5cccnc45)c(-c4cc(Cl)ccc4OC(F)F)n3)CC2C1 (stereo not drawn) [Example 9, 2-amino-N-[3-[5-chloro-2-(difluoromethoxy)phenyl]-1-[2-(2-methyl-1,3,3a,4,6,6a-hexahydropyrrolo[3,4-c]pyrrol-5-yl)-2-oxo-ethyl]pyrazol-4-yl]pyrazolo[1,5-a]pyrimidine-3-carboxamide] | 0.71 | 0.28 | 15.6 |  | 0.554
3 | CN[C@@H]1CCC[C@H](n2cc(NC(=O)c3c(N)nn4cccnc34)c(-c3cc(Cl)ccc3OC(F)F)n2)C1 [Example 296, 2-amino-N-[3-[5-chloro-2-(difluoromethoxy)phenyl]-1-[(1S,3R)-3-(methylamino)cyclohexyl]pyrazol-4-yl]pyrazolo[1,5-a]pyrimidine-3-carboxamide] | 0.26 | 0.21 | 5.6 |  | 0.0283
4 | O=C(Nc1cn(CC(=O)N2C[C@H]3CN(CC4CCCCC4)C[C@H]3C2)nc1-c1cc(Cl)ccc1OC(F)F)c1cnn2cccnc12 [Example 52, N-[1-[2-[(3aR,6aS)-2-(cyclohexylmethyl)-1,3,3a,4,6,6a-hexahydropyrrolo[3,4-c]pyrrol-5-yl]-2-oxo-ethyl]-3-[5-chloro-2-(difluoromethoxy)phenyl]pyrazol-4-yl]pyrazolo[1,5-a]pyrimidine-3-carboxamide] | 0.65 | 0.62 | 5.4 |  | 0.0388
5 | CN(CC1(C)COC1)C1CCN(c2nc(-c3cc(Cl)ccc3OC(F)F)c(NC(=O)c3cnn4cccnc34)s2)CC1 [Example 200, N-[4-[5-chloro-2-(difluoromethoxy)phenyl]-2-[4-[methyl-[(3-methyloxetan-3-yl)methyl]amino]-1-piperidyl]thiazol-5-yl]pyrazolo[1,5-a]pyrimidine-3-carboxamide] | 1.24 | 1.07 | 5.9 |  | 0.0254
6 | Nc1nn2cccnc2c1C(=O)Nc1cn([C@H]2C[C@@H](N)C2)nc1-c1cc(Cl)ccc1OC(F)F [Example 297, 2-Amino-pyrazolo[1,5-a]pyrimidine-3-carboxylic acid [1-(3-amino-cyclobutyl)-3-(5-chloro-2-difluoromethoxy-phenyl)-1H-pyrazol-4-yl]-amide] | 0.32 | 0.07 | 7.1 |  | 0.0308
7 | O=C(Nc1cn(CC(=O)N2C[C@H]3CN(CC4CCC(F)(F)CC4)C[C@H]3C2)nc1-c1cc(Cl)ccc1OC(F)F)c1cnn2cccnc12 [Example 33, N-[1-[2-[(3aR,6aS)-2-[(4,4-difluoro-cyclohexyl)methyl]-1,3,3a,4,6,6a-hexahydropyrrolo[3,4-c]pyrrol-5-yl]-2-oxo-ethyl]-3-[5-chloro-2-(difluoromethoxy)phenyl]pyrazol-4-yl]pyrazolo[1,5-a]pyrimidine-3-carboxamide] | 0.66 | 0.49 | 6.2 |  | 0.0485

More lines, main results first:

Row | Ki [1] [nM] | Ki [2] [nM] | EC50 ([3]; Homo sapiens, TF-1, TF-1 cells) [nM] | EC50 ([3]; TF-1 cells) [nM] | SMILES | EC50 [4] [µM]
8 | 1.07 | 1.59 | 42.3 |  | CNC1CCN(C(=O)Cn2cc(NC(=O)c3cnn4cccnc34)c(-c3cc(Cl)ccc3OC(F)F)n2)CC1 [Example 83, N-[3-[5-chloro-2-(difluoromethoxy)phenyl]-1-[2-[4-(methylamino)-1-piperidyl]-2-oxo-ethyl]pyrazol-4-yl]pyrazolo[1,5-a]pyrimidine-3-carboxamide] | 0.143
9 | 0.58 | 1.11 | 2.8 |  | O=C(Nc1cn(CC(=O)N2CCOCC2)nc1-c1cc(Cl)ccc1OC(F)F)c1cnn2cccnc12 [Example 288, N-[3-[5-chloro-2-(difluoromethoxy)phenyl]-1-(2-morpholino-2-oxo-ethyl)pyrazol-4-yl]pyrazolo[1,5-a]pyrimidine-3-carboxamide] | 0.0363
10 | 0.78 | 0.39 | 5.9 |  | N=C(N)CCn1cc(NC(=O)c2cnn3cccnc23)c(-c2cc(Cl)ccc2OC(F)F)n1 [Example 304, N-[1-(2-carbamimidoylethyl)-3-[5-chloro-2-(difluoromethoxy)phenyl]-1H-pyrazol-4-yl]pyrazolo[1,5-a]pyrimidine-3-carboxamide] | 0.0469
11 | 2.07 | 2.68 | 55.8 |  | CN1CC[C@H]2[C@@H](CCN2C(=O)Cn2cc(NC(=O)c3cnn4cccnc34)c(-c3cc(Cl)ccc3OC(F)F)n2)C1 [Example 62, N-[1-[2-[(3aS,7aS)-5-methyl-3,3a,4,6,7,7a-hexahydro-2H-pyrrolo[3,2-c]pyridin-1-yl]-2-oxo-ethyl]-3-[5-chloro-2-(difluoromethoxy)phenyl]pyrazol-4-yl]pyrazolo[1,5-a]pyrimidine-3-carboxamide] | 0.0892
12 | 0.74 | 1.78 |  | 7.1 | CN1CC[C@@H]2[C@@H](CCN2C(=O)Cn2cc(NC(=O)c3cnn4cccnc34)c(-c3cc(Cl)ccc3OC(F)F)n2)C1 [Example 45, N-[1-[2-[(3aS,7aR)-5-methyl-3,3a,4,6,7,7a-hexahydro-2H-pyrrolo[3,2-c]pyridin-1-yl]-2-oxo-ethyl]-3-[5-chloro-2-(difluoromethoxy)phenyl]pyrazol-4-yl]pyrazolo[1,5-a]pyrimidine-3-carboxamide] | 0.0245
13 | 2.23 | 1.63 | 7.6 |  | CN(CCCc1ccccc1)C1CCN(C(=O)Cn2cc(NC(=O)c3cnn4cccnc34)c(-c3cc(Cl)ccc3OC(F)F)n2)CC1 [Example 123, N-[3-[5-chloro-2-(difluoromethoxy)phenyl]-1-[2-[4-[methyl(3-phenylpropyl)amino]-1-piperidyl]-2-oxo-ethyl]pyrazol-4-yl]pyrazolo[1,5-a]pyrimidine-3-carboxamide] | 0.0487
14 | 1.34 | 0.47 | 16.3 |  | CCOC(=O)[C@@H](N)CCn1cc(NC(=O)c2cnn3cccnc23)c(-c2cc(Cl)ccc2OC(F)F)n1 [Example 309, ethyl (2S)-2-amino-4-[3-[5-chloro-2-(difluoromethoxy)phenyl]-4-(pyrazolo[1,5-a]pyrimidine-3-carbonylamino)pyrazol-1-yl]butanoate] | 0.049
15 | 0.28 | 0.18 | 4 |  | CCN(Cc1ccnc(Cl)c1)C(=O)Cn1cc(NC(=O)c2cnn3cccnc23)c(-c2cc(Cl)ccc2OC(F)F)n1 [Example 300, N-[3-[5-chloro-2-(difluoromethoxy)phenyl]-1-[2-[(2-chloro-4-pyridyl)methyl-ethyl-amino]-2-oxo-ethyl]pyrazol-4-yl]pyrazolo[1,5-a]pyrimidine-3-carboxamide] | 0.0142
